Test results taken from the SangsterLogP compilation.

Assay: method code RP-HPLC, from DOI: 10.1081/jlc-120027619
Conditions: pH 3.1

Question: Which logD does the source give for Cc1coc2c1C(=O)C(=O)c1c-2ccc2c1CCCC2(C)C here?
Answer: The logD was 5.4.

Question: For O=Cc1ccc(O)c(O)c1, which logD is on record?
Answer: The logD was 0.82.

Question: With COc1cc(O)c2c(c1)C(=O)c1cc(C)cc(O)c1C2=O as the compound, how does the logD read?
Answer: The logD was 4.93.

Question: For O=c1c(-c2ccc(O)cc2)coc2c([C@@H]3O[C@H](CO)[C@@H](O)[C@H](O)[C@H]3O)c(O)ccc12, which logD is on record?
Answer: The logD was 1.34.

Question: For O=C(O)C(O)Cc1ccc(O)c(O)c1 (configuration not stated), which logD is on record?
Answer: Its logD is 0.11.

Question: For C[C@H]1COC2=C1C(=O)C(=O)c1c2ccc2c1CCCC2(C)C, which logD is on record?
Answer: Its logD is 4.72.

Question: Which logD does the source give for Cc1cc(O)c2c(c1)C(=O)c1cc(O)cc(O)c1C2=O here?
Answer: The logD was 4.48.

Question: For O=C1c2cccc(O)c2C(=O)c2c(O)cc(CO)cc21, which logD is on record?
Answer: The logD was 3.18.

Question: For O=C(O)c1cc(O)c2c(c1)C(=O)c1cccc(O)c1C2=O, which logD is on record?
Answer: Its logD is 3.68.

Question: For Cc1coc2c1C(=O)C(=O)c1c-2ccc2c(C)cccc12, which logD is on record?
Answer: The logD was 4.65.

Question: For Cc1cc(O)c2c(c1)C(=O)c1cccc(O)c1C2=O, which logD is on record?
Answer: Its logD is 4.39.

Assay: method code SF-AS, from DOI: 10.1081/jlc-120027619
Conditions: not given

Question: With Cc1cccc2c3c(ccc12)C1=C(C(=O)C3=O)[C@@H](C)CO1 as the compound, how does the logP read?
Answer: The logP was 3.14.
